Reference: US7507727B2, “Substituted quinobenzoxazine analogs and methods of using thereof” (Cylene Pharmaceuticals, Inc., priority 2003, dated 2009)
Like-named read-outs stand apart in the source and are kept apart here.

Key:
[1] = test system: Escherichia coli (WP2-uvrA−); test: Bacterial mutagenicity test (Ames assay); conditions: E. coli WP2-uvrA−, with and without S9
Experimental: The test article was dissolved in 5% dextrose.
The pH was then adjusted to 3.53.
94720. […] (ATCC numbers: 29629 and 49979, respectively).
Genotype tests were performed.
Both endpoints serve as toxicity indicators in this assay.

c-MYC mRNA = c-MYC mRNA expression in tumor samples by QPCR; assay type: in vivo, mice; conditions: HCT-116
Experimental: CX-3543 was tested against a number of cancer xenograft models to determine the in vivo efficacy. HCT-116 and PC-3 tumor-bearing nu/nu or MiaPaCa tumor-bearing SCID mice were administered reference and testing compounds on schedules indicated in figure legends. Tumor measurements were taken with calipers every other day or twice a week starting from the first day of dosing and body weights were measured at the same time points. Tumor volumes were calculated from the standard formula, W^2×L/2. c-MYC mRNA expression was measured with QPCR from all tumor samples following the final dose. 18S ribosomal RNA was used as a housekeeper and also quantified with QPCR.

[2] = Pharmacokinetic/toxicokinetic evaluation in rats; assay type: in vivo; conditions: for Cmax / AUC(0-t) / half-life / AUC(0-inf): rat, plasma
Experimental: The study was conducted using three (3) test and one (1) control article groups. The high and low test article groups and the control group consisted of 28 animals each and were used to assess tolerance. The medium test article group consisted of 64 animals of which 28 animals were used to assess tolerance and 36 animals were used to determine the level of test article in the blood at various time points after the first and fifth doses in the PK/TK portion of the study. The control article was the solution (5% dextrose in water; D5W) used to dilute the test article prior to administration and was administered at the same volume as the high dose test article group. […] Test and control articles were administered by intravenous (IV) injection into a tail vein over one minute on five consecutive days.
Blood samples for test article blood level analysis were taken as follows. Approximately 0.3-0.5 mL of blood was taken from three male and three female rats under anesthesia at each sample time point of pre-dose and at the end of injection (Time 0) and at approximately 0.08, 0.25, 0.5, 1, 2, 4, 8, 12, and 24 hours from the end of the injection after the first and fifth doses. Animals used to assess tolerance were terminated one day (for the primary group) or 15 days (for the recovery group) after the last dose. At termination of the tolerance test animals, blood for hematology and clinical chemistry analysis was drawn prior to euthanasia and following euthanasia. A necropsy was performed to include collection of major organs for microscopic evaluation. The animals used for the pk/tk blood sampling only to determine the level of test article were euthanized after the final blood sample was collected without any further sampling or observations.
PK/TK: Blood samples for test article blood level analysis were taken. Utilizing 18 male and 18 female medium dose animals, approximately 0.3-0.5 mL of blood was taken from three male and three female rats under anesthesia at each sampling time point of pre-dose and at the end of injection (Time 0) and at approximately 0.08, 0.25, 0.5, 1, 2, 4, 8, 12, and 24 hours from the end of the injection after the first and fifth dose. Blood sampling was via retro-orbital bleeding or cardiac puncture bleeding for an animal's terminal sample. Plasma (lithium heparin anticoagulant) samples were prepared and analyzed. General procedures for chemical pathology, necropsy, and histopathology, and statistical methods, for example as described in Example 65, were followed.

topoisomerase II = test: Topoisomerase-II poison assay; assay type: biochemical
Description: FIG. 7 illustrates data from a toposiomerase-II poison assay, using VP-16 (Etoposide) as a control Topoisomerase-II poison.

CN1CCCC1CCNC(=O)c1cn2c3c(c(N4CCC(c5cnccn5)C4)c(F)cc3c1=O)Oc1cc3ccccc3cc1-2 (centres unmarked) [CX-3543]
mutagenicity (reversion rates) [1]: non-mutagenic
lowering of c-Myc mRNA expression relative to control (18s rRNA) in tumor tissue (c-MYC mRNA; 20 mg/kg group): 85%
c-Myc mRNA expression relative to control (18s rRNA) in tumor tissue (c-MYC mRNA; 10, 15 and 20 mg/kg): dose-dependent lowering
Dose 5 to Dose 1 ratio for AUC(0-24) ([2]; female): 1.5
Cmax ([2]; female, iv, 7.6 mg/kg, Dose 1): 598 ng/mL
Cmax ([2]; female, iv, 7.6 mg/kg, Dose 5): 1050 ng/mL
AUC(0-t) ([2]; female, iv, 7.6 mg/kg, female, Dose 1, read-out: AUC(0-24)): 784 ng·h/mL
AUC(0-t) ([2]; female, iv, 7.6 mg/kg, female, Dose 5, read-out: AUC(0-24)): 1200 ng·h/mL
half-life ([2]; female, iv, 7.6 mg/kg, female, Dose 5, read-out: terminal half-life (converted)): 4.8 h
half-life ([2]; female, iv, 7.6 mg/kg, female, IV, Dose 1 (medium dose group, 7.6 mg/kg), read-out: terminal half-life (converted)): 6.6 h
half-life ([2]; female, iv, […], female, Dose 1, […] IV, read-out: T1/2 (converted)): 6.6 h
half-life ([2]; female, iv, […], female, Dose 5, […] IV once daily, read-out: T1/2 (converted)): 4.8 h
Dose 5 to Dose 1 ratio for AUC(0-24) ([2]; male): 1.3
Accumulation Ratio ([2]; male, Dose 5 to Dose 1 AUC(0-24), 7.1 mg/kg IV): 1.3
Cmax ([2]; male, iv, 7.1 mg/kg, Dose 1, 7.1 mg/kg IV): 514 ng/mL
Cmax ([2]; male, iv, 7.1 mg/kg, Dose 5, 7.1 mg/kg IV once daily): 485 ng/mL
AUC(0-t) ([2]; male, iv, 7.1 mg/kg, male, Dose 1, 7.1 mg/kg IV, read-out: AUC(0-24)): 779 ng·h/mL
half-life ([2]; male, iv, 7.1 mg/kg, male, Dose 1, 7.1 mg/kg IV, read-out: T1/2 (converted)): 6.8 h
AUC(0-t) ([2]; male, iv, 7.1 mg/kg, male, Dose 5, 7.1 mg/kg IV once daily, read-out: AUC(0-24)): 1010 ng·h/mL
half-life ([2]; male, iv, 7.1 mg/kg, male, Dose 5, 7.1 mg/kg IV once daily, read-out: T1/2 (converted)): 8.8 h
Cmax ([2]; male, iv, 7.6 mg/kg, Dose 1): 514 ng/mL
Cmax ([2]; male, iv, 7.6 mg/kg, Dose 5): 485 ng/mL
AUC(0-t) ([2]; male, iv, 7.6 mg/kg, male, Dose 1, read-out: AUC(0-24)): 779 ng·h/mL
AUC(0-t) ([2]; male, iv, 7.6 mg/kg, male, Dose 5, read-out: AUC(0-24)): 1010 ng·h/mL
half-life ([2]; male, iv, 7.6 mg/kg, male, Dose 5, read-out: terminal half-life (converted)): 8.8 h
half-life ([2]; male, iv, 7.6 mg/kg, male, IV, Dose 1 (medium dose group, 7.6 mg/kg), read-out: terminal half-life (converted)): 6.8 h
AUC(0-inf) ([2]; female, Dose 1, 7.2 mg/kg IV): 861 ng·h/mL
AUC(0-inf) ([2]; iv, 7.6 mg/kg, female, Dose 1): 861 ng·h/mL
AUC(0-inf) ([2]; iv, 7.6 mg/kg, male, Dose 1): 833 ng·h/mL
AUC(0-inf) ([2]; male, Dose 1, 7.1 mg/kg IV): 833 ng·h/mL
inhibitory activity against topoisomerase II (topoisomerase II): not to be an inhibitor or poison
concentration up to which no topoisomerase dependent strand breaks were induced (topoisomerase II; supercoiled DNA, FIG. 7): > 100 µM
